Where two headings read alike, the source gives them in different places.
Columns and labels:
Assay type in all cases: in vivo
[1] = test system: chickweed (Stellaria media); experiment: Test C postemergence; conditions: Stellaria media, post-emergence; for pest or weed control at 31 g/ha: 31 g ai/ha, read-out: Plant response rating (scale of 0 to 100), Chickweed; for pest or weed control at 62 g/ha: 62 g ai/ha, scale 0 to 100 (0 no effect, 100 complete control), read-out: Chickweed plant response rating; for pest or weed control at 125 g/ha: 125 g ai/ha; for pest or weed control at 250 g/ha: 250 g ai/ha
Source text: (§1) Seeds or nutlets of plant species selected from bermudagrass (Cynodon dactylon), Surinam grass (Brachiaria decumbens), cocklebur (Xanthium strumarium), corn (Zea mays), crabgrass (Digitaria sanguinalis), woolly cupgrass (Eriochloa villosa), giant foxtail (Setaria faberii), goosegrass (Eleusine indica), johnsongrass (Sorghum halepense), kochia (Kochia scoparia), lambsquarters (Chenopodium album), morningglory (Ipomoea coccinea), eastern black nightshade (Solanum ptycanthum), yellow nutsedge (Cyperus esculentus), pigweed (Amaranthus retroflexus), common ragweed (Ambrosia elatior), soybean (Glycine max), common (oilseed) sunflower (Helianthus annuus), and velvetleaf (Abutilon theophrasti) were planted and treated preemergence with test chemicals formulated in a non-phytotoxic solvent mixture which included a surfactant.
(§2) At the same time, plants selected from these crop and weed species and also winter barley (Hordeum vulgare), blackgrass (Alopecurus myosuroides), canarygrass (Phalaris minor), chickweed (Stellaria media), downy brome (Bromus tectorum), green foxtail (Setaria viridis), Italian ryegrass (Lolium multiflorum), wheat (Triticum aestivum), wild oat (Avena fatua) and windgrass (Apera spica-venti) were treated with postemergence applications of some of the test chemicals formulated in the same manner. Plants ranged in height from 2 to 18 cm (1- to 4-leaf stage) for postemergence treatments. Plant species in the flooded paddy test consisted of rice (Oryza sativa), umbrella sedge (Cyperus difformis), duck salad (Heteranthera limosa) and barnyardgrass (Echinochloa crus-galli) grown to the 2-leaf stage for testing. Treated plants and controls were maintained in a greenhouse for 12 to 14 days, after which time all species were compared to controls and visually evaluated. Plant response ratings, summarized in Table C, are based on a scale of 0 to 100 where 0 is no effect and 100 is complete control. A dash (-) response means no test result.

[2] = test system: lambsquarters (Chenopodium album); experiment: Test C pre/postemergence; conditions: Chenopodium album; for pest or weed control at 31 g/ha: 31 g ai/ha; for pest or weed control at 62 g/ha: 62 g ai/ha; for pest or weed control at 125 g/ha: 125 g ai/ha; for pest or weed control at 250 g/ha: 250 g ai/ha; for pest or weed control at 500 g/ha: 500 g ai/ha
Source text: as §1, §2

[3] = test system: bermudagrass (Cynodon dactylon); experiment: Test C pre/postemergence; conditions: Cynodon dactylon; for pest or weed control at 31 g/ha: 31 g ai/ha; for pest or weed control at 62 g/ha: 62 g ai/ha; for pest or weed control at 125 g/ha: 125 g ai/ha; for pest or weed control at 125 g/ha / pest or weed control at 250 g/ha / pest or weed control at 500 g/ha: scale 0 to 100; for pest or weed control at 250 g/ha: 250 g ai/ha; for pest or weed control at 500 g/ha: 500 g ai/ha
Source text: as §1, §2

[4] = test system: johnsongrass (Sorghum halepense); experiment: Test C pre/postemergence; conditions: Sorghum halepense; for pest or weed control at 31 g/ha: 31 g ai/ha; for pest or weed control at 62 g/ha: 62 g ai/ha; for pest or weed control at 125 g/ha: 125 g ai/ha; for pest or weed control at 250 g/ha: 250 g ai/ha; for pest or weed control at 500 g/ha: 500 g ai/ha
Source text: as §1, §2

[5] = test system: soybean (Glycine max); experiment: Test C pre/postemergence; conditions: Glycine max; for plant injury at 31 g/ha: 31 g ai/ha; for plant injury at 62 g/ha: 62 g ai/ha; for plant injury at 125 g/ha: 125 g ai/ha; for plant injury at 250 g/ha: 250 g ai/ha; for plant injury at 500 g/ha: 500 g ai/ha
Source text: as §1, §2

[6] = scale 0 to 100, read-out: Plant response rating, Chickweed
[7] = post-emergence, Postemergence, read-out: Plant response rating (scale of 0 to 100), Lambsquarters
[8] = post-emergence, Postemergence, scale 0 to 100 (0 no effect, 100 complete control), read-out: Lambsquarters plant response rating
[9] = post-emergence, Postemergence, scale 0 to 100, read-out: Plant response rating, Lambsquarters
[10] = pre-emergence, Preemergence, scale 0 to 100, 0 no effect, 100 complete control, read-out: Plant response rating, Lambsquarters
[11] = pre-emergence, Preemergence, scale 0 to 100, read-out: Plant response rating, Lambsquarters
[12] = post-emergence, Postemergence, read-out: Plant response rating (scale of 0 to 100), Bermudagrass
[13] = post-emergence, Postemergence, scale 0 to 100 (0 no effect, 100 complete control), read-out: Bermudagrass plant response rating
[14] = post-emergence, Postemergence, read-out: Plant response rating, Bermudagrass
[15] = pre-emergence, Preemergence, scale 0 to 100, 0 no effect, 100 complete control, read-out: Plant response rating, Bermudagrass
[16] = pre-emergence, Preemergence, read-out: Plant response rating, Bermudagrass
[17] = post-emergence, Postemergence, read-out: Plant response rating (scale of 0 to 100), Johnsongrass
[18] = post-emergence, Postemergence, scale 0 to 100 (0 no effect, 100 complete control), read-out: Johnsongrass plant response rating
[19] = post-emergence, Postemergence, scale 0 to 100, read-out: Plant response rating, Johnsongrass
[20] = pre-emergence, Preemergence, scale 0 to 100, 0 no effect, 100 complete control, read-out: Plant response rating, Johnsongrass
[21] = pre-emergence, Preemergence, scale 0 to 100, read-out: Plant response rating, Johnsongrass
[22] = post-emergence, Postemergence, read-out: Plant response rating (scale of 0 to 100), Soybean
[23] = post-emergence, Postemergence, scale 0 to 100 (0 no effect, 100 complete control), read-out: Soybean plant response rating
[24] = post-emergence, Postemergence, scale 0 to 100, read-out: Plant response rating, Soybean
[25] = pre-emergence, Preemergence, scale 0 to 100, 0 no effect, 100 complete control, read-out: Plant response rating, Soybean
[26] = pre-emergence, Preemergence, scale 0 to 100, read-out: Plant response rating, Soybean

| SMILES | pest or weed control at 62 g/ha [1] [%] | pest or weed control at 125 g/ha [1, 6] [%] | pest or weed control at 250 g/ha [1, 6] [%] | pest or weed control at 62 g/ha [2, 8] [%] | pest or weed control at 125 g/ha [2, 8] [%] | pest or weed control at 250 g/ha [2, 9] [%] | pest or weed control at 62 g/ha [2, 10] [%] | pest or weed control at 125 g/ha [2, 11] [%] | pest or weed control at 250 g/ha [2, 11] [%] | pest or weed control at 62 g/ha [3, 13] [%] | pest or weed control at 125 g/ha [3, 14] [%] | pest or weed control at 250 g/ha [3, 14] [%] | pest or weed control at 62 g/ha [3, 15] [%] | pest or weed control at 125 g/ha [3, 16] [%] | pest or weed control at 250 g/ha [3, 16] [%] | pest or weed control at 62 g/ha [4, 18] [%] | pest or weed control at 125 g/ha [4, 18] [%] | pest or weed control at 250 g/ha [4, 19] [%] | pest or weed control at 62 g/ha [4, 20] [%] | pest or weed control at 125 g/ha [4, 21] [%] | further results |
| --- | --- | --- | --- | --- | --- | --- | --- | --- | --- | --- | --- | --- | --- | --- | --- | --- | --- | --- | --- | --- | --- |
| COC(=O)c1nc(C2CC2)nc(N)c1Br [Compound 2, methyl 6-amino-5-bromo-2-cyclopropyl-4-pyrimidinecarboxylate] | 65 | 75 | 95 | 100 | 100 | 100 | 100 | 100 | 100 | 60 | 70 | 80 | 0 | 0 | 0 | 0 | 25 | 60 | 0 | 0 | pest or weed control at 31 g/ha [1]: 60%; pest or weed control at 31 g/ha [2, 7]: 100%; pest or weed control at 31 g/ha [2, 10]: 90%; pest or weed control at 31 g/ha [3, 12]: 15%; pest or weed control at 31 g/ha [3, 15]: 0%; pest or weed control at 31 g/ha [4, 17]: 0%; pest or weed control at 31 g/ha [4, 20]: 0%; pest or weed control at 250 g/ha [4, 21]: 40%; plant injury at 31 g/ha [5, 22]: 100%; plant injury at 62 g/ha [5, 23]: 100%; plant injury at 125 g/ha [5, 23]: 100%; plant injury at 250 g/ha [5, 24]: 100%; plant injury at 31 g/ha [5, 25]: 15%; plant injury at 62 g/ha [5, 25]: 75%; plant injury at 125 g/ha [5, 26]: 90%; plant injury at 250 g/ha [5, 26]: 100% |
| COC(=O)c1nc(C(C)C)nc(N)c1Br [Compound 3] | 0 | 0 | 40 | 90 | 90 | 100 | 0 | 0 | 80 | 0 | 0 | 45 | 0 | 0 | 0 | 0 | 0 | 0 | 0 | 0 | pest or weed control at 31 g/ha [1]: 0%; pest or weed control at 31 g/ha [2, 7]: 75%; pest or weed control at 31 g/ha [2, 10]: 0%; pest or weed control at 31 g/ha [3, 12]: 0%; pest or weed control at 31 g/ha [3, 15]: 0%; pest or weed control at 31 g/ha [4, 17]: 0%; pest or weed control at 31 g/ha [4, 20]: 0%; pest or weed control at 250 g/ha [4, 21]: 0%; plant injury at 31 g/ha [5, 22]: 60%; plant injury at 62 g/ha [5, 23]: 75%; plant injury at 125 g/ha [5, 23]: 90%; plant injury at 250 g/ha [5, 24]: 95%; plant injury at 31 g/ha [5, 25]: 0%; plant injury at 62 g/ha [5, 25]: 0%; plant injury at 125 g/ha [5, 26]: 15%; plant injury at 250 g/ha [5, 26]: 20% |
| CCOC(=O)c1nc(C2CC2)nc(N)c1Cl [Compound 4, ethyl 6-amino-5-chloro-2-cyclopropyl-4-pyrimidinecarboxylate] | 30 | 85 | 100 | 100 | 100 | 100 | 95 | 100 | 100 | 40 | 65 | 70 | 0 | 20 | 45 | 70 | 80 | 95 | 50 | 70 | pest or weed control at 500 g/ha ([1]; 500 g ai/ha, scale 0 to 100, read-out: Plant response rating, Chickweed): 100%; pest or weed control at 500 g/ha [2, 9]: 100%; pest or weed control at 500 g/ha [2, 11]: 100%; pest or weed control at 500 g/ha [3, 14]: 80%; pest or weed control at 500 g/ha [3, 16]: 95%; pest or weed control at 500 g/ha [4, 19]: 95%; pest or weed control at 250 g/ha [4, 21]: 90%; pest or weed control at 500 g/ha [4, 21]: 95%; plant injury at 62 g/ha [5, 23]: 100%; plant injury at 125 g/ha [5, 23]: 100%; plant injury at 250 g/ha [5, 24]: 100%; plant injury at 500 g/ha [5, 24]: 100%; plant injury at 62 g/ha [5, 25]: 95%; plant injury at 125 g/ha [5, 26]: 100%; plant injury at 250 g/ha [5, 26]: 100%; plant injury at 500 g/ha [5, 26]: 100% |
